From patent US4769374A, “Tetrahydroisoquinoline ethyl esters of 1,4-dihydropyridines and antihypertensive compositions” (Poli Industria Chimica S.p.A., priority 1984, dated 1988) come the findings set out here.

One series is described as follows: in vivo. The note with it: mouse, mice of both sexes, oral, day 14 of observation. How it is done:
The acute toxicity was determined on mice of both sexes upon oral administration of the compounds to be tested as a suspension in carboxymethylcellulose containing 0.5% of physiologic solution, and it was expressed as an LD50 value at day 14 of observation.

Series [1] relates to spontaneous hypertensive rats (systolic pressure of the caudal artery). The series can be described thus: Antihypertensive activity per os in spontaneous hypertensive rats. It counts as in vivo, rat. The note with it: 3 mg/kg p.o., percentage of the decrease of the systolic pressure. As for the experimental part:
The antihypertensive activity was determined by administering spontaneous hypertensive rats with the compounds of the invention, by oral route, as a suspension in carboxymethylcellulose containing 0.5% of physiologic solution. […] The obtained results are reported in Table 2, and are expressed as the percentage of the decrease of the sistolic pressure after treatment.

Structures are written as SMILES.

As to `CCOC(=O)C1=C(C)NC(C)=C(C(=O)OCCN2CCc3ccccc3C2)C1c1cccc([N+](=O)[O-])c1` (stereo not drawn) [I, R = C2 H5], in the series “in vivo”, the LD50 (commonly the dose expected to kill half of the subjects tested) at 336 h came out at 1000 mg/kg. Besides, in series [1], the “Pressure variations (pressure time 0 - less pressure after administration), 15 min.” value was 43 ± 10.2%; the “Pressure variations (pressure time 0 - less pressure after administration), 1 h” value is on record as 31 ± 7.1%; the “Pressure variations (pressure time 0 - less pressure after administration), 3 h” value turned out to be 22 ± 9.4%; the “Pressure variations (pressure time 0 - less pressure after administration), 5 h” value was determined as 11 ± 6.9%.
In the same order, the values of `COC(=O)C1=C(C)NC(C)=C(C(=O)OCCN2CCc3ccccc3C2)C1c1cccc([N+](=O)[O-])c1.Cl` (stereo not drawn) [I, R = CH3, 2-(1,2,3,4-Tetrahydro-isoquinoline-2-yl)ethyl 1,4-dihydro-2,6-dimethyl-4-(3-nitrophenyl)-5-methoxycarbonyl-pyridine-3-carboxylate, mono-hydrochloride] are 1000 mg/kg, 54 ± 6.4%, 86 ± 7.3%, 73 ± 12.8% and 49 ± 8.7%.
The like results for `CC1=C(C(=O)OCCN2CCc3ccccc3C2)C(c2cccc([N+](=O)[O-])c2)C(C(=O)OC(C)C)=C(C)N1` (stereo not drawn) [I, R = CH(CH3)2] were, in that order, 1000 mg/kg, 39 ± 7.6%, 38 ± 6.9%, 18 ± 6.1% and 2 ± 3.1%.
In the same order, the values of `COC(=O)C1=C(C)NC(C)=C(C(=O)OCCN(C)Cc2ccccc2)C1c1cccc([N+](=O)[O-])c1` (stereo not drawn) [Nicardipine, reference compound] are 350 mg/kg, 49 ± 11.3%, 52 ± 9.7%, 36 ± 6.2% and 21 ± 5.8%.
Regarding `COC(=O)C1=C(C)NC(C)=C(C(=O)OC)C1c1ccccc1[N+](=O)[O-]` [Nifedipine, reference compound], in series [1], the “Pressure variations (pressure time 0 - less pressure after administration), 15 min.” value is reported as 41 ± 5.4%; the “Pressure variations (pressure time 0 - less pressure after administration), 1 h” value is recorded as 23 ± 6.1%; the “Pressure variations (pressure time 0 - less pressure after administration), 3 h” value was determined as 12 ± 4.3%; the “Pressure variations (pressure time 0 - less pressure after administration), 5 h” value was found to be 9 ± 5.6%.
